Measured values as given in US10611778B2, “Fused bicyclic inhibitors of menin-MLL interaction” (Janssen Pharmaceutica NV, priority 2016, dated 2020).
Where “and” joins values, the source holds several entries; their conditions need not be identical. Identical values can stand only once. Like-named read-outs stand apart in the source and are kept apart here.

Columns and labels:
MOLM14 = experiment: Proliferation assay (spheroid assay) MOLM14; format: cell-based, human
How it was run: (§1)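 Cells were grown as spheroids in ultra-low attachment round-bottom wells with compound (0.3% DMSO) for 8 d at 37 °C, imaged every 4 h, with confluence as spheroid size. AUC of confluence versus time (t=0 baseline) was expressed as % of DMSO control, and absolute IC50 came from a least-squares nonlinear fit.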

K562 = experiment: Proliferation assay (spheroid assay) K562 control cell line; format: cell-based; details: Homo sapiens
Description: The anti-proliferative effect of menin/MLL protein/protein interaction inhibitor test compounds was assessed in human leukemia cell lines. The cell lines MV-4-11 and MOLM14 harbor MLL translocations and express the MLL fusion proteins MLL-AF4 and MLL-AF9, respectively, as well as the wildtype protein from the second allele. […] K562 and KG1 were used as a control cell lines containing two MLL wildtype alleles in order to exclude compounds that display general cytotoxic effects.
MV-4-11 and MOLM14 were cultured in RPMI-1640 (Sigma Aldrich) supplemented with 10% fetal bovine serum (HyClone), 2 mM L-glutamine (Sigma Aldrich) and 50 μg/ml gentamycin (Gibco). K562 were propagated in RPMI-1640 (Sigma Aldrich) supplemented with 20% fetal bovine serum (HyClone), 2 mM L-glutamine (Sigma Aldrich) and 50 μg/ml gentamycin (Gibco). KG1 were cultured in Iscove's MDM (Gibco) supplemented with 20% fetal bovine serum (HyClone), 2 mM L-glutamine (Sigma Aldrich) and 50 μg/ml gentamycin (Gibco).
In order to assess the anti-proliferative effects, 1,500 MV-4-11, 300 MOLM14, 750 K562 or 1,300 KG1 cells were seeded in 200 μl media per well in 96-well round bottom, ultra-low attachment plates (Costar, catalogue number 7007). Cell seeding numbers were chosen based on growth curves to ensure linear growth throughout the experiment. Test compounds were added at different concentrations and the DMSO content was normalized to 0.3%. Cells were incubated for 8 d at 37° C. and 5% CO2. Spheroid like growth was monitored in real-time by live-cell imaging (IncuCyteZOOM, Essenbio, 4× objective) acquiring one image every four hours for 8 d. Confluence (%) as a measure of spheroid size was determined using an integrated analysis tool.
In order to determine the cumulative effect of the test compounds over time, the area under the curve (AUC) in a plot of confluence against time was calculated. Confluence at the beginning of the experiment (t=0) was used as baseline for the AUC calculation.
Absolute IC50 values were calculated according to the following procedure: % Control=(AUC sample/AUC control)*100
AUC control=mean AUC of control values (cells without compound/DMSO as vehicle control)
A non-linear curve fit was applied using the least squares (ordinary) fit method to the plot of % control versus compound concentration. Based on this, the absolute IC50 value (half maximal inhibitory concentration of the test compound causing an anti-proliferative effect of 50% relative to the vehicle control) was calculated.

[1] = target: T1, Menin/MLL (menin, FITC-MBM1 peptide) (Homo sapiens, UniProt O00255, T541A); experiment: Menin/MLL fluorescence polarization (FP) assay; format: binding
T1 construct: 6xHis (C)
T1 sequence (O00255 with tags, fused parts or gaps T541A): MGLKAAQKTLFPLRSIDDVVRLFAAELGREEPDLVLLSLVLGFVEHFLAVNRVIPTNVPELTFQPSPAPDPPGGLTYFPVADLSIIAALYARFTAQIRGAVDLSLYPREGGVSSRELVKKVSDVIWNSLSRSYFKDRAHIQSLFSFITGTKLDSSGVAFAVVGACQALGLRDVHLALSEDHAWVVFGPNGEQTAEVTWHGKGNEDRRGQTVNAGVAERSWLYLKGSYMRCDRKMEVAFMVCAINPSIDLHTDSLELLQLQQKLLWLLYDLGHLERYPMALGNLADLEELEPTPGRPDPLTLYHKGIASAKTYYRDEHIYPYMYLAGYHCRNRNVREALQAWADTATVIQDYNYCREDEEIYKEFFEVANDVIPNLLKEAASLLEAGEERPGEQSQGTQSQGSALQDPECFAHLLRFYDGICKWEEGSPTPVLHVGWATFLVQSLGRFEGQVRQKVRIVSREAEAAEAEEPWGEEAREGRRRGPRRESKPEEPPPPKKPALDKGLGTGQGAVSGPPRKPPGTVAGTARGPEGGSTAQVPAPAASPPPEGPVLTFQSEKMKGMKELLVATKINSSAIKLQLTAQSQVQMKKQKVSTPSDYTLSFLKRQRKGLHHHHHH
How it was run: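 Compound pre-incubated 10 min with 100 nM menin (40 mM Tris-HCl pH 7.5, 50 mM NaCl, 1 mM DTT, 0.001% Tween 20), then 5 nM FITC-MBM1 peptide added for 15 min at ambient temperature; 0.625% DMSO final. FP read at ex 485/em 520 nm. IC50 from 11-point three-fold dilutions from 31 μM, % inhibition vs saturating-competitor controls.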

MV-4-11 = experiment: Proliferation assay (spheroid assay) MV-4-11; format: cell-based, human
How it was run: as §1

[2] = Homo sapiens, MOLM-14, MOLM14, averaged values over all measurements, read-out: Spheroid assay MOLM14 (IC50)
[3] = K562 control cell line, averaged values over all measurements, read-out: Spheroid assay K562 (IC50)
[4] = averaged values over all measurements, read-out: Menin FP assay (IC50)
[5] = Homo sapiens, MV4-11, MV-4-11, averaged values over all measurements, read-out: Spheroid assay MV-4-11 (IC50)

SMILES | IC50 (MOLM14; [2]) [µM] | IC50 (K562; [3]) [µM] | IC50 [1, 4] [µM] | IC50 (MV-4-11; [5]) [µM] | IC50 (MOLM14; MOLM14, 8 d, individual measurements (not averaged), read-out: (2) Spheroid assay MOLM14 (IC50 (μM))) | IC50 (K562; 192 h, K562, 8 d, individual measurements (not averaged), read-out: (2) Spheroid assay K562 (IC50 (μM))) [µM] | IC50 ([1]; individual measurements (not averaged), read-out: (1) Menin FP assay (IC50 (μM))) [µM] | IC50 (MV-4-11; Homo sapiens, MV4-11, 192 h, MV-4-11, 8 d, individual measurements (not averaged), read-out: (2) Spheroid assay MV-4-11 (IC50 (μM))) [µM] | IC50 (MV-4-11; MV-4-11, 8 d, individual measurements (not averaged), read-out: (2) Spheroid assay MV-4-11 (IC50 (μM))) [µM]
Fc1ccccc1CN1CC[C@H]2CN(c3ncnc4sc(CC(F)(F)F)cc34)CC[C@H]21 (single isomer, unassigned) [Compound 6] | 3.3 | 9 | 0.21 | 1.4 | – | – | – | – | –
FC(F)(F)Cc1cc2c(N3CC[C@H]4[C@H](CCN4Cc4ccc[nH]4)C3)ncnc2s1 (single isomer, unassigned) [Compound 8] | – | – | – | – | 5.7 µM and > 15 µM | > 15 | 0.101 | 2.1 | 2.3
FC(F)(F)Cc1cc2c(N3CCC4C(CCN4Cc4ccccc4)C3)ncnc2s1 (centres unmarked) [Compound 1] | 4.4 | 13.1 | 0.033 | 1.5 | – | – | – | – | –
FC(F)(F)Cc1cc2c(N3CCC4C3CCN4Cc3ccccc3)ncnc2s1 (centres unmarked) [Compound 2] | 9.8 | > 15 | 0.34 | 7.3 | – | – | – | – | –
